Data on 15 compounds can be found in US10421761B2, “Compounds for kinase modulation, and indications therefor” (Plexxikon Inc., priority 2013, dated 2019).

The structures appear in SMILES notation.

Test [1] has as its system A375 (BRAF V600E) cell line. In words: A375 P-ERK inhibition assay (AlphaScreen). As to conditions: Homo sapiens, A-375; A375_P-ERK. The class given is cell-based, human. As to the method:
(§1) Phospho-ERK AlphaScreen® assay. To determine the effects of compound treatment upon phosphorylation of ERK1/2, cells were plated in a 96-well dish and treated with an 8-point titration of compound for one hour at 37° C. before lysis. To detect pERK, cell lysates were incubated with streptavidin-coated AlphaScreen® donor beads, anti-mouse IgG AlphaScreen® acceptor beads, a biotinylated anti-ERK1/2 rabbit antibody, and a mouse antibody that recognizes ERK1/2 only when it is phosphorylated on Thr202 and Tyr204. The biotinylated ERK1/2 antibody binds to both the streptavidin-coated AlphaScreen® donor beads and to ERK1/2 (regardless of its phosphorylation state), and the phospho-ERK1/2 antibody binds to the acceptor beads and to ERK1/2 that is phosphorylated at Thr202/Tyr204. An increase in ERK1/2 phosphorylation at Thr202/Tyr204 brings the donor and acceptor AlphaScreen® beads into close proximity, generating a signal that can be quantified on an EnVision reader (Perkin Elmer).

The subject of test [2] is IPC-298 (NRAS Q61L) cell line. In words: IPC-298 P-ERK cell activation assay (AlphaScreen). The class given is cell-based, human. As to conditions: Homo sapiens; P-ERK cell activation, IPC-298; numeric bounds; read-out: Cell activity (EC50 μM) IPC-298_P-ERK. The method, then: (§2) B9 is a squamous cell carcinoma cell line expressing activated HRAS that was isolated from a DMBA/TPA-induced mouse model of skin carcinogenesis (Stoler, et al. The Journal of Cell Biology, 1993, 122(5), 1103-17). IPC-298 is a human melanoma cell line that expresses activated NRAS (Aubert, et al. International Journal of Cancer, 1993, 54(5), 784-92). To determine whether compounds induce phosphorylated ERK and MEK, cells are plated in a 96-well dish and treated with an 8-point titration of compound for one hour at 37° C. The media is then removed and the cells are incubated with lysis buffer containing protease and phosphatase inhibitors. Phosphorylated ERK and MEK in the resulting lysates is detected using AlphaScreen™ technology. To detect phosphorylated ERK, cell lysates are incubated with streptavidin-coated donor beads, anti-mouse IgG acceptor beads, a biotinylated anti-ERK1/2 rabbit antibody, and a mouse antibody that recognizes ERK1/2 only when it is phosphorylated on Thr202 and Tyr204. The biotinylated ERK1/2 antibody will bind to both the streptavidin-coated donor beads and to ERK1/2 (regardless of its phosphorylation state), and the phospho-ERK1/2 antibody will bind to the acceptor beads and to ERK1/2 that is phosphorylated at Thr202/Tyr204. Excitation of the beads with laser light at 680 nm produces singlet oxygen, which is rapidly quenched unless the beads are in close proximity. When ERK is phosphorylated, both antibodies can bind the same protein, bringing the donor and acceptor beads into close proximity, producing a signal that can be measured at 580 nm. MEK phosphorylation is detected using a similar approach, only with antibodies directed against total MEK1/2 and MEK1/2 that is phosphorylated at Ser217 and Ser221.
as §1

The next test has as its system B9 (HRAS Q61L) cell line. Put plainly: B9 P-ERK cell activation assay (AlphaScreen). The format is cell-based, mouse. As to conditions: Mus musculus; P-ERK cell activation, B9; numeric bounds; read-out: Cell activity (EC50 μM) B9_pERK. The method, then: as §2, §1
The next test addresses T1, BRAF V600E (Homo sapiens, UniProt P15056, V600E).
T1 construct: purchased Upstate Biotechnology
Put plainly: BRAF V600E biochemical kinase activity assay (AlphaScreen, biotin-MEK1 substrate). As to conditions: BRAF V600E biochemical inhibitory activity. The method, then: Compounds to be tested are diluted in dimethyl sulfoxide to a concentration of 0.1 mM. These are serially diluted 15 μL into 30 μL of dimethyl sulfoxide seven times in 96 well plates for a total of 8 dilution points, and for each dilution point 1 μL is added to a well of an assay plate. […] The reaction is started with addition of 10 μL of 200 μM ATP (i.e. final 100 μM ATP). After incubation of the kinase reaction for 45 minutes at room temperature, 5 μL/well of Stop Solution is added (25 mM Hepes pH 7.5, 100 mM EDTA, 0.01% BSA with donor beads (Streptavidin coated beads, Perkin Elmer), acceptor beads (Protein A coated, Perkin Elmer), and anti-phosphor MEK1/2 antibody (CellSignal), each at final concentration 10 μg/mL). The plates are incubated for 3 hours at room temperature and read on Envision reader (Perkin Elmer). Phosphorylation of Mek1 results in binding of the anti-phosphor-MEK1/2antibody and association of the donor and acceptor beads such that signal correlates with kinase activity. The signal versus compound concentration is used to determine the IC50.
The in vitro RAF kinase activities were determined by measuring phosphorylation of a biotinylated substrate peptide as described previously (Tsai, J. et al. Proc Natl Acad Sci USA 105, 3041-3046 (2008)). Compounds of formula (I), e.g., compound A, was also tested against a panel of 287 kinases at concentrations of 1 μM in duplicate. Kinases inhibited by over 50% were followed up by IC50 determination. The 287 kinases represent all major branches of the kinome phylogenetic tree. The inhibition screen of 287 kinases was carried out under contract as complementary panels at Invitrogen (Life Technologies, Wis., USA) SelectScreen™ profiling service, DiscoverX (CA, USA) KINOMEScan™ service, and Reaction Biology Corporation (PA, USA) Kinase HotSpot℠ service.

T1 sequence (P15056 whole entry V600E): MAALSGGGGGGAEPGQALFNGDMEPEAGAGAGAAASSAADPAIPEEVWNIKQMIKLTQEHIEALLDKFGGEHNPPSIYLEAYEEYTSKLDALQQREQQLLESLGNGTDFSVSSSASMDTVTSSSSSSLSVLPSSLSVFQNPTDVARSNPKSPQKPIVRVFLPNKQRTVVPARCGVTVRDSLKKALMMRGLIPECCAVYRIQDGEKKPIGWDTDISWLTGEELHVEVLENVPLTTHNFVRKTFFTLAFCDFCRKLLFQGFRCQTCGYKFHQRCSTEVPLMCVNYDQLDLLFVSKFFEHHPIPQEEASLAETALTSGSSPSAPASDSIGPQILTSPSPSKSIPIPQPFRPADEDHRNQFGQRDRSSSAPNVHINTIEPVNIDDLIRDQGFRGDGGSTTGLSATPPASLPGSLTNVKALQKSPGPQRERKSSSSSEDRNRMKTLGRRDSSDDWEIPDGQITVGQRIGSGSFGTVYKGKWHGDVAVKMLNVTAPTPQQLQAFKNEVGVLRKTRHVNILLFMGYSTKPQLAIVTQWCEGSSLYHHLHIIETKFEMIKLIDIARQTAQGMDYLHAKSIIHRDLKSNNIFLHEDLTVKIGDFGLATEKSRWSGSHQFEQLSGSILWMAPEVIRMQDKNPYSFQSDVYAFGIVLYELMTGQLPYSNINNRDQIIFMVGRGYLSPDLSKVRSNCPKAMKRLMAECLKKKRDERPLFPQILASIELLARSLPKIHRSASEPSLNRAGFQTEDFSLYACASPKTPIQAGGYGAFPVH

As for `CCN(C)S(=O)(=O)Nc1cccc(C(=O)c2c[nH]c3ncnc(N[C@H](C)C4CC4)c23)c1F` [P-2079, 4-[[(1R)-1-cyclopropylethyl]amino]-5-[3-[[ethyl(methyl)sulfamoyl]amino]-2-fluoro-benzoyl]-7H-pyrrolo[2,3-d]pyrimidine], the IC50 (in test [1]; on BRAF V600E) was 0.0001 to 1 µM each time. For the same compound, the half-maximal effective concentration (EC50) (in test [2]; with B9 (HRAS Q61L) cell line) was above 10 µM throughout.

Consider `O=C(c1cccc(NS(=O)(=O)N2CCCC2)c1F)c1c[nH]c2ncnc(NCC3CC3)c12` [P-2057, N-[3-[4-(cyclopropylmethylamino)-7H-pyrrolo[2,3-d]pyrimidine-5-carbonyl]-2-fluoro-phenyl]pyrrolidine-1-sulfonamide], for which the half-inhibitory concentration (IC50) (in test [1]; on BRAF V600E) was 0.0001 to 1 µM throughout. Moreover, the EC50 (in test [2]; in the test with B9 (HRAS Q61L) cell line) was above 10 µM each time.

In the case of `CC(=O)Nc1ccc(NC(=O)c2c(F)ccc(NS(=O)(=O)N(C)C)c2F)cn1` [P-2034, N-(6-acetamido-3-pyridyl)-3-(dimethylsulfamoylamino)-2,6-difluoro-benzamide], the IC50 lay in the range of 1 to 10 µM in test [1] and 0.0001 to 1 µM against BRAF V600E. The concentration for a half-maximal effect (EC50) (in test [2]; with B9 (HRAS Q61L) cell line) was above 10 µM in each case.

For `CC(C)(C)c1nc(-c2cccc(NS(=O)(=O)N3CCCC3)c2F)c(-c2ncnc3[nH]cnc23)s1` [P-2125, N-[3-[2-tert-butyl-5-(9H-purin-6-yl)thiazol-4-yl]-2-fluoro-phenyl]pyrrolidine-1-sulfonamide], the IC50 (in test [1]; at BRAF V600E) was 0.0001 to 1 µM in each case. For the same compound, the EC50 in test [2] is above 1 µM; with B9 (HRAS Q61L) cell line it was above 10 µM.

On to `CCN(C)S(=O)(=O)Nc1ccc(F)c(C(=O)c2c[nH]c3ncnc(N[C@H](C)C4CC4)c23)c1F` [P-2118, 4-[[(1R)-1-cyclopropylethyl]amino]-5-[3-[[ethyl(methyl)sulfamoyl]amino]-2,6-difluoro-benzoyl]-7H-pyrrolo[2,3-d]pyrimidine], for which the IC50 (in test [1]; at BRAF V600E) was 0.0001 to 1 µM each time. Also, the EC50 (in test [2]; in the test on B9 (HRAS Q61L) cell line) was above 10 µM throughout.

Turning to `Cc1cc2c(-c3sc(C(C)(C)C)nc3-c3cccc(NS(=O)(=O)N4CCCC4)c3F)ccnc2[nH]1` [P-2121, N-[3-[2-tert-butyl-5-(2-methyl-1H-pyrrolo[2,3-b]pyridin-4-yl)thiazol-4-yl]-2-fluoro-phenyl]pyrrolidine-1-sulfonamide], the IC50 (in test [1]; against BRAF V600E) was 0.0001 to 1 µM throughout. Further, the 50% effective concentration (EC50) (in test [2]; with B9 (HRAS Q61L) cell line) was above 10 µM each time.

Regarding `CCN(C)S(=O)(=O)Nc1cccc(C(=O)c2c[nH]c3ncnc(OC)c23)c1F` [P-2092, 5-[3-[[ethyl(methyl)sulfamoyl]amino]-2-fluoro-benzoyl]-4-methoxy-7H-pyrrolo[2,3-d]pyrimidine], the half-inhibitory concentration (IC50) (in test [1]; at BRAF V600E) was 0.0001 to 1 µM throughout. The EC50 (in test [2]; in the test on B9 (HRAS Q61L) cell line) was above 10 µM throughout.

As for `CCN(C)S(=O)(=O)Nc1cccc(C(=O)c2c[nH]c3ncnc(NCC(C)(C)O)c23)c1F` [P-2069, 5-[3-[[ethyl(methyl)sulfamoyl]amino]-2-fluoro-benzoyl]-4-[(2-hydroxy-2-methyl-propyl)amino]-7H-pyrrolo[2,3-d]pyrimidine], the IC50 (in test [1]; on BRAF V600E) was 0.0001 to 1 µM throughout. In addition, the 50% effective concentration (EC50) (in test [2]; in the test with B9 (HRAS Q61L) cell line) was above 10 µM each time.

In the case of `[2H]C1([2H])CCC([2H])([2H])N1S(=O)(=O)Nc1cc(Cl)cc(C(=O)c2c[nH]c3ncc(-c4cnc(C5CC5)nc4)cc23)c1F` [P-2176, N-[5-chloro-3-[5-(2-cyclopropylpyrimidin-5-yl)-1H-pyrrolo[2,3-b]pyridine-3-carbonyl]-2-fluoro-phenyl]-2,2,5,5-tetradeuterio-pyrrolidine-1-sulfonamide], the half-inhibitory concentration (IC50) (in test [1]; against BRAF V600E) was 0.0001 to 1 µM throughout. Moreover, the EC50 (in test [2]; in the test with B9 (HRAS Q61L) cell line) was above 10 µM throughout.

For `CCN(C)S(=O)(=O)Nc1cccc(C(=O)c2c[nH]c3ncnc(NCCOC)c23)c1F` [P-2073, 5-[3-[[ethyl(methyl)sulfamoyl]amino]-2-fluoro-benzoyl]-4-(2-methoxyethylamino)-7H-pyrrolo[2,3-d]pyrimidine], the concentration for half-maximal inhibition (IC50) (in test [1]; at BRAF V600E) was 0.0001 to 1 µM each time. The EC50 (in test [2]; in the test on B9 (HRAS Q61L) cell line) was above 10 µM throughout.

`O=C(c1c(F)ccc(NS(=O)(=O)N2CCCC2)c1F)c1c[nH]c2nccc(Cl)c12` [P-2025, N-[3-(4-chloro-1H-pyrrolo[2,3-b]pyridine-3-carbonyl)-2,4-difluoro-phenyl]pyrrolidine-1-sulfonamide]: the IC50 (in test [1]; against BRAF V600E) was 0.0001 to 1 µM in each case. For the same compound, the EC50 (in test [2]; in the test on B9 (HRAS Q61L) cell line) was above 10 µM throughout.

Take `CCN(C)S(=O)(=O)Nc1ccc(F)c(C(=O)c2c[nH]c3ncnc(NC(C)C)c23)c1F` [P-2117, 5-[3-[[ethyl(methyl)sulfamoyl]amino]-2,6-difluoro-benzoyl]-4-(isopropylamino)-7H-pyrrolo[2,3-d]pyrimidine]: the IC50 (in test [1]; on BRAF V600E) was 0.0001 to 1 µM throughout. The EC50 (in test [2]; in the test with B9 (HRAS Q61L) cell line) was above 10 µM throughout.

`Cc1cc(NS(=O)(=O)N2CCCC2)c(F)c(C(=O)c2c[nH]c3ncc(-c4cnc(C5CC5)nc4)cc23)c1` [P-2183, N-[3-[5-(2-cyclopropylpyrimidin-5-yl)-1H-pyrrolo[2,3-b]pyridine-3-carbonyl]-2-fluoro-5-methyl-phenyl]pyrrolidine-1-sulfonamide]: the half-maximal effective concentration (EC50) (in test [2]; with B9 (HRAS Q61L) cell line) was above 10 µM in each case. Moreover, at BRAF V600E, the half-maximal inhibitory concentration (IC50) was in the range of 0.0001 to 1 µM.

With `Cc1cc(NS(=O)(=O)N2CC[C@@H](F)C2)c(F)c(C(=O)c2c[nH]c3ncc(-c4cnc(C5CC5)nc4)cc23)c1` [P-2182, (3R)-N-[3-[5-(2-cyclopropylpyrimidin-5-yl)-1H-pyrrolo[2,3-b]pyridine-3-carbonyl]-2-fluoro-5-methyl-phenyl]-3-fluoro-pyrrolidine-1-sulfonamide], the concentration for a half-maximal effect (EC50) (in test [2]; in the test on B9 (HRAS Q61L) cell line) was above 10 µM in each case. The compound further showed a concentration for half-maximal inhibition (IC50) against BRAF V600E of 0.0001 to 1 µM.

As to `COC(=O)N[C@@H](C)CNc1nccc(-c2sc(C(C)(C)C)nc2-c2cccc(NS(=O)(=O)N3CC[C@@H](F)C3)c2F)n1` [P-2138, methyl N-[(1S)-2-[[4-[2-tert-butyl-4-[2-fluoro-3-[[(3R)-3-fluoropyrrolidin-1-yl]sulfonylamino]phenyl]thiazol-5-yl]pyrimidin-2-yl]amino]-1-methyl-ethyl]carbamate], the half-inhibitory concentration (IC50) (in test [1]; on BRAF V600E) was 0.0001 to 1 µM in each case. Besides, in the test on B9 (HRAS Q61L) cell line, the EC50 is above 10 µM.
